Data as given in PubChem BioAssay (NCI).
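In this assay, cells in 96-well plates receive the compound at five concentrations for 48 hours. Endpoints are linearly interpolated between the surrounding concentrations. GI50 = concentration required for 50% inhibition of growth. Definition used: TGI = concentration required for complete inhibition of growth.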

What was measured:
Test in all cases: NCI-60 cell line screen, 48 h
[1] = system: LXFL 529 NSCLC
[2] = system: MALME-3M melanoma
[3] = system: A498 renal
[4] = system: MOLT-4 leukemia
[5] = system: SK-MEL-5 melanoma
[6] = system: SF-268 CNS
[7] = system: SF-539 CNS
[8] = system: HOP-92 NSCLC
[9] = system: KM20L2 colon
[10] = system: PC-3 prostate

| Structure (SMILES) | TGI [1] [µM] | TGI [2] [µM] | TGI [3] [µM] | TGI [4] [µM] | TGI [5] [µM] | TGI [6] [µM] | TGI [7] [µM] | TGI [8] [µM] | TGI [9] [µM] | GI50 [2] [µM] | GI50 [3] [µM] | GI50 [4] [µM] | GI50 [5] [µM] | GI50 [6] [µM] | GI50 [7] [µM] | GI50 [8] [µM] | GI50 [10] [µM] | TGI [10] [µM] |
| --- | --- | --- | --- | --- | --- | --- | --- | --- | --- | --- | --- | --- | --- | --- | --- | --- | --- | --- |
| O=C(/C=C/c1ccccc1O)c1ccc([N+](=O)[O-])cc1 | 26.7 | > 100 | 40.9 | 76.6 | 49.8 | 66.9 | 29.2 | > 100 | 39.7 | – | – | – | – | – | – | – | – | – |
| COc1cc(/C=C/c2cc(/C=C/c3ccc(O)c(OC)c3)n(C(=O)Nc3ccccc3Cl)n2)ccc1O | – | 2.01 | 2.04 | 1.2 | 1.22 | 3.18 | 1.58 | 2.39 | – | 0.539 | 0.487 | 0.269 | 0.299 | 0.529 | 0.352 | 0.349 | 0.392 | 2.22 |
| c1ccncc1 | > 100 | > 100 | > 100 | > 100 | > 100 | > 100 | > 100 | > 100 | > 100 | – | – | – | – | – | – | – | – | – |
| COC(=O)c1cc2oc(/C=C3/SC(=S)N(N)C3=O)cc2n1Cc1ccccc1 | – | 17.7 | 6.48 | > 100 | 7.03 | 7.73 | 6.3 | 12.8 | – | 1.91 | 2.16 | 4.23 | 1.99 | 2.22 | 2.3 | 1.47 | 9.61 | > 31.9 |
| O=C(Cc1nc2ccccc2o1)C(=O)Nc1cccc(Cl)c1 | > 100 | > 100 | > 100 | > 100 | – | > 100 | > 100 | > 100 | > 100 | – | – | – | – | – | – | – | – | – |
| CC(C)(C)CC(C)(C)c1ccc(O)c(Cc2ccc(Cl)cc2Cl)c1 | – | 3.24 | 2.61 | 3.44 | 2.95 | 2.95 | 3.36 | 2.76 | – | 1.68 | 1.33 | 1.66 | 1.6 | 1.6 | 1.84 | 1.39 | 1.54 | 2.88 |
| Cn1cc(-c2nc(-c3c[nH]c4ncccc34)cs2)c2ccccc21 | – | > 100 | > 100 | > 100 | > 100 | > 100 | > 100 | 36.2 | – | 31.9 | 34.5 | 23 | 0.595 | 89.4 | 48.7 | 2.72 | 16.4 | > 100 |
| COC(=O)[C@]12CC[C@@H](C)[C@H](C)[C@@H]1C1=CC[C@@H]3[C@@]4(C)C[C@@H](OC(=O)/C=C/c5ccccc5)[C@H](O)[C@@](C)(CO)[C@@H]4[C@H](O)C[C@@]3(C)[C@]1(C)CC2 | – | 10.9 | 4.83 | 7.31 | 4.23 | 10.4 | 4.77 | 6.42 | – | 2.84 | 1.07 | 2.27 | 1.93 | 2.62 | 2.08 | 2.11 | 2.55 | 8.93 |
| Cn1cc(C2=C(c3cn(-c4ccccc4)c4ccccc34)C(=O)NC2=O)c2ccccc21 | – | > 25 | > 25 | > 25 | > 25 | > 25 | > 25 | > 25 | – | 14.9 | > 16.2 | 9.59 | 10.8 | 20.4 | > 25 | > 25 | 9.86 | > 25 |
| CN(C)CCCSc1ccccc1NC1=C(Cl)C(=O)C(Nc2ccccc2SCCCN(C)C)=C(Cl)C1=O | – | 3.6 | 20.6 | 2.68 | 3.55 | 4.48 | 3.1 | 3.06 | – | 1.85 | 8.36 | 0.41 | 1.83 | 1.93 | 1.68 | 1.48 | 1.68 | 3.84 |
| COc1cc([N+](=O)[O-])c(OC)cc1-c1nc2sc(C)cn2c1/C(N)=N/C(=N)N | – | 45.2 | 69.1 | > 100 | > 100 | > 100 | > 100 | 88.3 | – | 13 | 27.3 | > 100 | 28.3 | 22 | 27.3 | 24.1 | 45.9 | > 100 |
| O=C(c1ccccc1Cl)n1oc2ccccc2c1=O | – | > 100 | > 100 | 51.3 | > 100 | > 100 | > 100 | > 100 | – | – | – | – | – | – | – | – | – | > 100 |
| CC1(C)N=C(N)N=C(N)N1c1ccc(OCCCNC(=O)Nc2cccc(S(=O)(=O)F)c2)c(Cl)c1 | – | > 100 | > 100 | > 100 | > 100 | > 100 | > 100 | > 100 | – | 42.8 | 21.9 | 3.26 | 0.715 | 0.596 | 4.78 | 3.06 | 1.23 | > 100 |
| Cc1ccc2cccc(OC(=O)Nc3cccc(C(F)(F)F)c3)c2n1 | – | 10 | 9.46 | 24.2 | 20.1 | 18.3 | 18.1 | 6.66 | – | 3.03 | 2.59 | 3.61 | 7.41 | 4.26 | 5.42 | 2.21 | 2.74 | 9.79 |
| CN(C)CCC(CCN(C)C)=NO | > 100 | > 100 | > 100 | > 100 | > 100 | > 100 | > 100 | – | > 100 | – | – | – | – | – | – | – | – | – |
| C/C(=N\OCC(O)CNCCSCc1ccccc1)c1ccccc1Cl (stereo not given) | – | 37.2 | 31.9 | > 100 | 33.4 | 34.6 | 36.9 | 28.4 | – | – | – | – | – | – | – | – | – | 36.2 |
